In assay [1] the test system is Staphylococcus epidermis ATCC 35984. Nature of the assay: MIC assay (planktonic growth inhibition, OD600). In kind it is cell-based, S. epidermidis. Conditions: for IC50: read-out: S. epidermidis MIC50; for IC90: read-out: S. epidermidis MIC90. The procedure:
(§1) The exact weighed amount was noted and the volume of solvent to reach a 80 mM dilution calculated. Half of the volume was added first, by adding Tween 80. In a second step, the other half of the volume DMSO was added and the closed tube inverted 5-10 times and then vortexed very thoroughly for at least 30 seconds. If after this procedure unsolved material was still visible, the tube was placed in a shaker at 37° C. at 150 rpm for at least 30 minutes. […] For the MBEC assay (method 1.3) the solution needs to be diluted to a final concentration of 2 mM in 0.9% saline solution and then further diluted to 1 mM, 0.5 mM, 0.25 mM and 0.125 mM in saline. Those dilutions were added as treatment to the 96 well plates with the grown biofilm (see method 3).
(§2) Frozen aliquots of Staphylococcus epidermis ATCC 35984 and Pseudomonas aeruginosa ATCC 27853 were used to inoculate a tryptic soy agar (TSA) plate and incubated overnight at 37° C. After incubation 3-5 well-isolated colonies with the same morphology were selected from the TSA plate and resuspended in 2 mL 0.9% saline solution with 3-6 glass beads and vortexed. The optical density at 600 nm (OD600) of the bacterial suspension was measured with a spectrophotometer (Evolution™ 201/220 UV-Visible Spectrophotometer, Thermo Fisher Scientific) and diluted to an OD600 of 0.0008, which resembles 10^6 CFU/mL.
(§3) The MIC assay was performed in a flat-bottom 96-microtiter plate. 50 μL of MHB-II was added into columns 2-11, and 100 μL to column 12 for sterility control. 100 μL of the 8 mM test compound solution (method 1) was added to column 1. A two-fold dilution series of the solution in MHB-II was achieved by resuspending 50 μL of the 8 mM solution from column 1 to column 2. This step was repeated until column 10. The respective concentration of Tween 80 and DMSO in column 1 was 2.5%, which is two-fold diluted throughout the plate. 50 μL of the bacterial suspension was added to column 1-11. The microtiter plates were sealed with adhesive polyethylene film for sealing microplates (Diversified Biotech) and incubated for 24 h at 37° C. After incubation the OD was measured at 600 nm with the Varioskan (Thermo Fisher Scientific). […] This assay was repeated three times in three independent experiments.

The test system of assay [2] is Pseudomonas aeruginosa ATCC 27853. Description: MIC assay (planktonic growth inhibition, OD600). In kind it is cell-based, P. aeruginosa. Conditions: for IC50 / IC90: Pseudomonas aeruginosa; for IC50: read-out: P. aeruginosa MIC50; for IC90: read-out: P. aeruginosa MIC90. On the procedure:
as §1, §2, §3

For assay [3], the system named is Staphylococcus epidermis ATCC 35984 biofilm. Description: MBEC assay (biofilm eradication, CFU log reduction). Conditions: for minimal effective concentration: read-out: S. epidermidis MBEC mM with log reduction ≥1. Format: cell-based, S. epidermidis. The procedure:
as §1
(§4) Frozen aliquots of Staphylococcus epidermis ATCC 35984 and Pseudomonas aeruginosa ATCC 27853 were used to inoculate 20 mL of Tryptic Soy Broth (TSB) in a 100 mL Erlenmeyer flask at 37° C. and 150 rpm and incubated overnight (Infors). The OD600 of the overnight culture was measured with a spectrophotometer (Evolution™ 201/220 UV-Visible Spectrophotometer, Thermo Fisher Scientific) and diluted to an OD600 of 0.2, which resembles 10^8 CFU/mL. The cell suspension of OD600=0.2 was seeded into a U-bottom-shaped 96 well plates by pipetting 100 μL per well in column 1-11, column 12 was filled with 100 μL medium as sterility control. The 96 well plates were sealed with adhesive polyethylene film for sealing microplates and incubated for 48 h at 37° C. at static conditions. After the biofilm growth phase, 100 μL of treatment solutions (method 1) were added to the vials resulting in treatment concentrations of 1 mM, 0.5 mM, 0.25 mM and 0.125 mM and with the respective concentration of Tween 80 and DMSO each at 0.63%, 0.32%, 0.16% and 0.08%. The same concentration was applied to four different wells of the same bacterial strain, resulting in four replicates for each concentration and strain. The treatment was incubated for 20 h at 37° C. at static conditions. After the treatment the supernatant was carefully removed and the well with the biofilm washed carefully for one time with 200 μL 0.9% saline solution. 200 μL saline solution was added and the biofilm was resuspended thoroughly. When fully homogenized then 20 μL was used for the first dilution in 180 μL 0.9% saline solution, which was prepared in a second plate. This dilution was continued until dilution step 10E−5 and 100 μL of the 10E−4 and 10E−5 dilution plated on a TSA plate. The TSA plates were incubated at 37° C. for 24 h. The colonies on the plates were enumerated, the colony forming units per mL of the dispensed biofilm and averages thereof and the log reduction in comparison with the untreated sample from the same wells plate calculated. Reduction of colony forming units goes hand in hand with the thickness of the biofilm and thus with the number bacteria that are present in the biofilm. Therefore, a significant reduction of colony forming units in the biofilm was defined at the value of log reduction ≥1 or more. This assay was repeated two times in two independent experiments)

For assay [4], the system named is Pseudomonas aeruginosa ATCC 27853 biofilm. The description is as above. In kind it is cell-based, P. aeruginosa. Conditions: for minimal effective concentration: Pseudomonas aeruginosa, read-out: P. aeruginosa MBEC mM with log reduction ≥1. The procedure: as §1, §4
In another assay the test system is udder cleft wound. Description: In vivo udder cleft dermatitis test: wound assessment after spray treatment. Set-up: species or system cow. Conditions: over 60 days, all cows of the group. On the procedure:
An example of a biofilm-related disorder is Udder Cleft Dermatitis (UCD), which relates to a chronic wound. In this Example, di-alkyl thiosulfonates, dialkyl thiosulfinates and di-alkyl disulfides were tested for their effect on cows affected by UCD.
Experiments were performed to examine the effect of various sprays containing water (control), a test compound, or a reference compound (CTC spray, which contains chlorotetracycline hydrochloride, and was obtained from Dechra veterinary products).
0.35 mL of the spray was sprayed on an udder cleft wound per treatment. Treatments took place once a day at t=0, at t=3 days and t=6 days. In Table 6, the assessment qualifications that are used in Table 7, are explained.

For assay [5], the system named is Staphylococcus epidermis ATCC 35984 biofilm. Nature of the assay: MBIC assay (biofilm inhibition, crystal violet). In kind it is cell-based, S. epidermidis. Conditions: 48 h incubation, absorbance 540 nm. The procedure: as §1
(§5) Frozen aliquots of Staphylococcus epidermis ATCC 35984 and Pseudomonas aeruginosa ATCC 27853 were used to inoculate a tryptic soy agar (TSA) plate and were incubated overnight at 37° C. After incubation 3-5 well-isolated colonies with the same morphology were selected from the TSA plate and resuspended in 2 mL 0.9% saline solution with 3-6 glass beads and vortexed. The optical density of the bacterial suspension was measured at 600 nm (OD600) with a spectrophotometer (Evolution™ 201/220 UV-Visible Spectrophotometer, Thermo Fisher Scientific) and diluted to an OD600 of 0.2. The MBIC assay was performed in a 96-microtiter plate. 50 μL of TSB was added into columns 2-11, and 100 μL to column 12 for sterility control. 100 μL of the 8 mM test compound solution (method 1) was added to column 1. A two-fold dilution series of the solution in TSB was achieved by resuspending 50 μL of the 8 mM solution from column 1 in column 2. This step was repeated until column 10. The respective concentration of Tween 80 and DMSO in column 1 is at 2.5%, which is two-fold diluted throughout the plate. 50 μL of the bacterial suspension was added to column 1-11. The microtiter plates were sealed with adhesive polyethylene film for sealing microplates (Diversified Biotech) and incubated for 48 h at 37° C. After incubation the supernatant is carefully removed and the well with the biofilm washed for one time with 100 μL 0.9% saline solution. 100 μL 0.1 M HCl was added and incubated for 1 h at room temperature to fix the biofilm. After incubation the HCl was removed and 100 μL crystal violet (0.1% v/v in water) was added and incubated for 30 min at room temperature. The unbound crystal violet was removed and the wells washed one time with 100 μL demineralized water. 100 μL 30% acetic acid was added and incubated for 1 h at 37° C. and 150 rpm. The solution was resuspended and transferred to a flat-bottom 96-well plate and the absorbance measured at 540 nm with the spectrophotometer. This assay was repeated two times in two independent experiments.

Assay [6] has as its system Pseudomonas aeruginosa ATCC 27853 biofilm. Nature of the assay: MBIC assay (biofilm inhibition, crystal violet). Format: cell-based, P. aeruginosa. Particulars: 48 h incubation, absorbance 540 nm. The procedure: as §1, §5
The mark [7] stands for this setting: minimal concentration reducing final OD600 by 50%, 24 h at 37° C.
Where [8] appears, read: minimal concentration reducing final OD600 by 90%, 24 h at 37° C.
[9] abbreviates: ATCC27853, minimal concentration reducing final OD600 by 50%, 24 h at 37° C.
Where [10] appears, read: ATCC27853, minimal concentration reducing final OD600 by 90%, 24 h at 37° C.
Where [11] appears, read: 48 h grown biofilm, 20 h treatment, CFU log reduction vs untreated.
The mark [12] stands for this setting: ATCC27853, 48 h grown biofilm, 20 h treatment, CFU log reduction vs untreated.

Like-named read-outs stand apart in the source and are kept apart here. Where only a bound is given, the exact number is not on record here.

For `CCCCSSCCCC` [Di-n-butyl disulfide], the IC50 in assay [1] (setting [7]) and in assay [2] (setting [9]) was over 4 mM each time. Also, the IC90 in assay [1] (setting [8]) and in assay [2] (setting [10]) was over 4 mM in each case. Moreover, the minimal effective concentration in assay [3] (setting [11]) and in assay [4] (setting [12]) was over 1 mM in each case. In addition, the “Conclusion (effect on udder cleft wound)” value with udder cleft wound is recorded as “No effect”.

As for `COc1ccc(SSc2ccc(OC)cc2)cc1` [Bis (4-methoxyphenyl) disulfide, Bis(4-methoxyphenyl) disulfide], the IC50 in assay [1] (setting [7]) and in assay [2] (setting [9]) was over 4 mM throughout. Besides, the IC90 in assay [1] (setting [8]) and in assay [2] (setting [10]) was over 4 mM throughout. Besides, the minimal effective concentration in assay [3] (setting [11]) and in assay [4] (setting [12]) was over 1 mM in each case. Also, the “Conclusion (effect on udder cleft wound)” value in the assay with udder cleft wound was “No effect”.

Consider `c1ccc(CSSCc2ccccc2)cc1` [Di-benzyl disulfide], for which the IC50 in assay [1] (24 h) was over 4 mM; in assay [2] (ATCC27853, 24 h), over 4 mM. For the same molecule, the IC90 was over 4 mM in assay [1] (24 h) and over 4 mM in assay [2] (ATCC27853, 24 h). Also, the minimal effective concentration in assay [3] (20 h) was over 1 mM; in assay [4] (ATCC27853, 20 h) it was over 1 mM. Also, the “Conclusion (effect on udder cleft wound)” value in the assay on udder cleft wound is listed as “No effect”.

With `Fc1ccc(SSc2ccc(F)cc2)cc1` [Bis (4-fluorophenyl) disulfide], the IC50 in assay [1] (setting [7]) amounted to 0.06 mM; in assay [2] (setting [9]), 0.125 mM. Moreover, the IC90 is 0.06 mM in assay [1] (setting [8]) and 0.25 mM in assay [2] (setting [10]). The minimal effective concentration in assay [3] (setting [11]) and in assay [4] (setting [12]) was over 1 mM in each case. Also, in the assay on udder cleft wound, the “Conclusion (effect on udder cleft wound)” value was “No effect”.

For `CC(C)SSC(C)C` [Di-isopropyl disulfide], the IC50 in assay [1] (setting [7]) and in assay [2] (setting [9]) was over 4 mM each time. The IC90 in assay [1] (setting [8]) and in assay [2] (setting [10]) was over 4 mM throughout. Besides, the minimal effective concentration in assay [3] (setting [11]) and in assay [4] (setting [12]) was over 1 mM each time. Besides, the “Conclusion (effect on udder cleft wound)” value with udder cleft wound is “No effect”.

Regarding `[O-][S+](Cc1ccccc1)SCc1ccccc1` [D-benzyl thiosulfinate, Di-benzyl thiosulfinate], in assay [1] (setting [7]), the “S. epidermidis MIC50” value is 30 µM. In addition, the “S. epidermidis MIC90” value in assay [1] (setting [8]) turned out to be 30 µM. For the same molecule, the “P. aeruginosa MIC50” value in assay [2] (setting [7]) was 60 µM. In addition, in assay [2] (setting [8]), the “P. aeruginosa MIC90” value amounted to 500 µM. Besides, the “S. epidermidis MBEC mM with log reduction ≥1” value in assay [3] (setting [11]) was 1 mM. The “P. aeruginosa MBEC mM with log reduction ≥1” value in assay [4] (setting [11]) was 0.125 mM. Besides, the “S. epidermidis MBIC90” value in assay [5] is reported as 4 mM. Also, the “P. aeruginosa MBIC90” value in assay [6] was over 4 mM.

Consider `c1ccc(SSc2ccccc2)cc1` [Di-phenyl disulfide], for which the results for the IC50 in assay [1] (setting [7]) and in assay [2] (setting [9]) were 0.125 mM and 2 mM, respectively. In addition, the IC90 in assay [1] (setting [8]) and in assay [2] (setting [10]) was over 4 mM each time. Besides, the figures for the minimal effective concentration in assay [3] (setting [11]) and in assay [4] (setting [12]) were over 1 mM and 0.125 mM, respectively. Further, the “Conclusion (effect on udder cleft wound)” value in the assay on udder cleft wound is listed as “No effect”.

For the molecule `Cc1ccc(S[S+]([O-])c2ccc(C)cc2)cc1` (centres unmarked) [Bis (p-tolyl) thiosulfinate], the “S. epidermidis MIC50” value in assay [1] (setting [7]) was determined as 125 µM. The “S. epidermidis MIC90” value in assay [1] (setting [8]) was found to be 250 µM. In assay [2] (setting [7]), the “P. aeruginosa MIC50” value is 125 µM. The “P. aeruginosa MIC90” value in assay [2] (setting [8]) turned out to be 250 µM. The “S. epidermidis MBEC mM with log reduction ≥1” value in assay [3] (setting [11]) was determined as 1 mM. Moreover, the “P. aeruginosa MBEC mM with log reduction ≥1” value in assay [4] (setting [11]) was 1 mM. The “S. epidermidis MBIC90” value in assay [5] is recorded as over 4 mM. Besides, the “P. aeruginosa MBIC90” value in assay [6] is over 4 mM.

Consider `CCS[S+]([O-])CC` (centres unmarked) [Di-ethyl thiosulfinate, S-ethyl ethanesulfinothioate], for which the “Conclusion (effect on udder cleft wound)” value with udder cleft wound is given as “No effect”.

(Values after US20240374535A1, “COMPOSITIONS AND METHODS FOR TREATING BIOFILM DISORDERS AND INFECTIONS” (AHV International B.V., priority 2021, published 2024).)
